± gives the expanded uncertainty stated by the source.
Assay: xn = mol fraction of the nth substance listed
Conditions: 101.33 kPa, Liquid

## CCCCCl [1-chlorobutane] + CCC(C)O
288.15 K, x2 = 0.05
  mass density: 887.1 ± 0.38 kg/m3
288.15 K, x2 = 0.0965
  viscosity: 0.496 ± 0.007 mPa·s
288.15 K, x2 = 0.1177
  mass density: 881.38 ± 0.4 kg/m3
288.15 K, x2 = 0.1435
  mass density: 879.24 ± 0.4 kg/m3
288.15 K, x2 = 0.1962
  mass density: 874.99 ± 0.41 kg/m3
288.15 K, x2 = 0.1973
  viscosity: 0.542 ± 0.008 mPa·s
288.15 K, x2 = 0.2227
  mass density: 872.88 ± 0.42 kg/m3
288.15 K, x2 = 0.2962
  viscosity: 0.601 ± 0.008 mPa·s
288.15 K, x2 = 0.34
  mass density: 863.63 ± 0.45 kg/m3
288.15 K, x2 = 0.3934
  viscosity: 0.688 ± 0.009 mPa·s
288.15 K, x2 = 0.4058
  mass density: 858.45 ± 0.46 kg/m3
288.15 K, x2 = 0.4104
  mass density: 858.09 ± 0.46 kg/m3
288.15 K, x2 = 0.4917
  viscosity: 0.805 ± 0.011 mPa·s
288.15 K, x2 = 0.4986
  mass density: 851.12 ± 0.48 kg/m3
288.15 K, x2 = 0.5241
  mass density: 849.12 ± 0.49 kg/m3
288.15 K, x2 = 0.5527
  mass density: 846.87 ± 0.49 kg/m3
288.15 K, x2 = 0.5923
  viscosity: 0.995 ± 0.013 mPa·s
288.15 K, x2 = 0.6114
  mass density: 842.23 ± 0.51 kg/m3
288.15 K, x2 = 0.6634
  mass density: 838.14 ± 0.52 kg/m3
288.15 K, x2 = 0.6919
  viscosity: 1.286 ± 0.016 mPa·s
288.15 K, x2 = 0.7388
  mass density: 832.24 ± 0.53 kg/m3
288.15 K, x2 = 0.7931
  viscosity: 1.764 ± 0.022 mPa·s
288.15 K, x2 = 0.7984
  mass density: 827.45 ± 0.54 kg/m3
288.15 K, x2 = 0.8286
  mass density: 824.99 ± 0.55 kg/m3
288.15 K, x2 = 0.884
  mass density: 820.5 ± 0.56 kg/m3
288.15 K, x2 = 0.8933
  viscosity: 2.648 ± 0.033 mPa·s
288.15 K, x2 = 0.9367
  mass density: 816.07 ± 0.57 kg/m3
298.15 K, x2 = 0.0965
  viscosity: 0.444 ± 0.006 mPa·s
298.15 K, x2 = 0.1973
  viscosity: 0.478 ± 0.007 mPa·s
298.15 K, x2 = 0.2962
  viscosity: 0.524 ± 0.007 mPa·s
298.15 K, x2 = 0.3934
  viscosity: 0.587 ± 0.008 mPa·s
298.15 K, x2 = 0.4917
  viscosity: 0.675 ± 0.009 mPa·s
298.15 K, x2 = 0.5923
  viscosity: 0.811 ± 0.011 mPa·s
298.15 K, x2 = 0.6919
  viscosity: 1.011 ± 0.013 mPa·s
298.15 K, x2 = 0.7931
  viscosity: 1.334 ± 0.017 mPa·s
298.15 K, x2 = 0.8933
  viscosity: 1.901 ± 0.024 mPa·s
308.15 K, x2 = 0.0965
  viscosity: 0.399 ± 0.006 mPa·s
308.15 K, x2 = 0.1007
  mass density: 860.49 ± 0.42 kg/m3
308.15 K, x2 = 0.1941
  mass density: 853.08 ± 0.44 kg/m3
308.15 K, x2 = 0.1973
  viscosity: 0.426 ± 0.006 mPa·s
308.15 K, x2 = 0.2775
  mass density: 846.72 ± 0.46 kg/m3
308.15 K, x2 = 0.2962
  viscosity: 0.462 ± 0.007 mPa·s
308.15 K, x2 = 0.3881
  mass density: 838.47 ± 0.48 kg/m3
308.15 K, x2 = 0.3934
  viscosity: 0.51 ± 0.007 mPa·s
308.15 K, x2 = 0.4876
  mass density: 831.15 ± 0.5 kg/m3
308.15 K, x2 = 0.4917
  viscosity: 0.577 ± 0.008 mPa·s
308.15 K, x2 = 0.5897
  mass density: 823.73 ± 0.52 kg/m3
308.15 K, x2 = 0.5923
  viscosity: 0.676 ± 0.009 mPa·s
308.15 K, x2 = 0.6919
  viscosity: 0.818 ± 0.011 mPa·s
308.15 K, x2 = 0.6927
  mass density: 816.37 ± 0.54 kg/m3
308.15 K, x2 = 0.7931
  viscosity: 1.034 ± 0.014 mPa·s
308.15 K, x2 = 0.795
  mass density: 808.99 ± 0.56 kg/m3
308.15 K, x2 = 0.8933
  viscosity: 1.419 ± 0.018 mPa·s
308.15 K, x2 = 0.8963
  mass density: 801.67 ± 0.58 kg/m3
318.15 K, x2 = 0.0864
  mass density: 850.35 ± 0.43 kg/m3
318.15 K, x2 = 0.0965
  viscosity: 0.362 ± 0.006 mPa·s
318.15 K, x2 = 0.1906
  mass density: 842.1 ± 0.45 kg/m3
318.15 K, x2 = 0.1973
  viscosity: 0.382 ± 0.006 mPa·s
318.15 K, x2 = 0.2732
  mass density: 835.88 ± 0.47 kg/m3
318.15 K, x2 = 0.2962
  viscosity: 0.41 ± 0.006 mPa·s
318.15 K, x2 = 0.382
  mass density: 828 ± 0.49 kg/m3
318.15 K, x2 = 0.3934
  viscosity: 0.45 ± 0.007 mPa·s
318.15 K, x2 = 0.4862
  mass density: 820.61 ± 0.51 kg/m3
318.15 K, x2 = 0.4917
  viscosity: 0.498 ± 0.007 mPa·s
318.15 K, x2 = 0.5852
  mass density: 813.65 ± 0.53 kg/m3
318.15 K, x2 = 0.5923
  viscosity: 0.571 ± 0.008 mPa·s
318.15 K, x2 = 0.6823
  mass density: 806.95 ± 0.55 kg/m3
318.15 K, x2 = 0.6919
  viscosity: 0.676 ± 0.009 mPa·s
318.15 K, x2 = 0.7865
  mass density: 799.78 ± 0.57 kg/m3
318.15 K, x2 = 0.7931
  viscosity: 0.825 ± 0.011 mPa·s
318.15 K, x2 = 0.8928
  mass density: 792.59 ± 0.59 kg/m3
318.15 K, x2 = 0.8933
  viscosity: 1.072 ± 0.014 mPa·s

From the NIST ThermoML archive (doi:10.1021/je0496140)
